In patent US8927717B1, “Thiochromeno[2,3-c]quinolin-12-one derivatives, preparation method and application thereof” (National Defense Medical Center, priority 2014, dated 2015):

How the values were obtained:
Assay type in all cases: cell-based
NCI/ADR-RES = details: Ovarian cancer; 10^−5 molar; 48 hours; SRB
SW-620 = tested on: SW-620
T-47D = details: Breast cancer; 10^−5 molar; 48 hours; SRB
NCI-H522 = tested on: NCI-H522
60 cancer cell lines = assay: NCI 60-cell screen, SRB, whole panel (mean, delta, range)
TK-10 = tested on: TK-10
OVCAR-5 = tested on: OVCAR-5
K-562 = tested on: K-562
MCF7 = tested on: MCF7
HOP-62 = tested on: HOP-62
RPMI-8226 = tested on: RPMI-8226
BT-549 = tested on: BT-549
A498 = tested on: A498
HCT-15 = tested on: HCT-15
PC-3 = tested on: PC-3
SK-MEL-5 = tested on: SK-MEL-5
CCRF-CEM = tested on: CCRF-CEM
HS 578T = tested on: HS 578T
HT29 = tested on: HT29
SR = tested on: SR
HCT-116 = tested on: HCT-116
[1] = Colon cancer, 10^−5 molar, 48 hours, SRB
[2] = Homo sapiens, SW-620, five dose
[3] = Homo sapiens, NCI-H522, five dose
[4] = Non-small cell lung cancer, 10^−5 molar, 48 hours, SRB
[5] = Renal cancer, 10^−5 molar, 48 hours, SRB
[6] = Leukemia, 10^−5 molar, 48 hours, SRB
[7] = Breast cancer, 10^−5 molar, 48 hours, SRB
[8] = Homo sapiens, HOP-62, five dose
[9] = Homo sapiens, HCT-15, five dose
[10] = Homo sapiens, HT-29, HT29, five dose
[11] = Homo sapiens, HCT-116, five dose

## CCNc1nc2ccccc2c2c(=O)c3cc(Cl)ccc3sc12 [Compound N2, 10-Chloro-6-ethylamino-12H-thiochromeno[2,3-c]quinolin-12-one]
NCI/ADR-RES
  Growth percent NCI/ADR-RES: 88.61%
SW-620; [1]
  Growth percent SW-620: 84.65%
SW-620; [2]
  GI50: > 100 µM
  LC50: > 100 µM
SW-620; SW-620, five dose
  TGI: >100 µM
T-47D
  Growth percent T-47D: 38.28%
NCI-H522; [3]
  GI50: 24.8 µM
  LC50 (concentration causing 50% net cell kill): > 100 µM
NCI-H522; NCI-H522, five dose
  TGI: >100 µM
NCI-H522; [4]
  Growth percent NCI-H522: 80.75%
60 cancer cell lines; 60 cell, mean over panel, five dose
  GI50: 28.8 µM
60 cancer cell lines; 60 cell, mean over panel, five dose, read-out: LC50, Mean
  CC50: 100 µM
60 cancer cell lines; delta over the cell panel, 10^−5 molar, 48 hours, SRB
  Growth percent, Delta: 66.04%
60 cancer cell lines; mean over panel, five dose
  TGI, Mean: 83.18 µM
60 cancer cell lines; mean over the cell panel, 10^−5 molar, 48 hours, SRB
  Growth percent, Mean: 65.97%
60 cancer cell lines; range over the cell panel, 10^−5 molar, 48 hours, SRB
  Growth percent, Range: 103.40%
TK-10; Homo sapiens, TK-10, five dose, read-out: LC50 (the source's name)
  CC50: > 100 µM
TK-10; [5]
  Growth percent TK-10: 47.11%
OVCAR-5; Homo sapiens, OVCAR-5, five dose
  GI50: > 100 µM
OVCAR-5; Homo sapiens, OVCAR-5, five dose, read-out: LC50 (the source's name)
  CC50: > 100 µM
OVCAR-5; OVCAR-5, five dose
  TGI: >100 µM
OVCAR-5; Ovarian cancer, 10^−5 molar, 48 hours, SRB
  Growth percent OVCAR-5: 92.93%
K-562; Homo sapiens, K562, K-562, five dose
  GI50: > 100 µM
K-562; Homo sapiens, K562, K-562, five dose, read-out: LC50 (the source's name)
  CC50: > 100 µM
K-562; K-562, five dose
  TGI: >100 µM
K-562; [6]
  Growth percent K-562: 77.52%
MCF7; [7]
  Growth percent MCF7 (Table 2: MCF): 17.54%
MCF7; Homo sapiens, MCF7, five dose, read-out: LC50 (the source's name)
  CC50: > 100 µM
MCF7; MCF7, five dose
  TGI: >100 µM
HOP-62; HOP-62, five dose
  TGI: 35.20 µM
HOP-62; [8]
  GI50: 13.3 µM
  LC50 (lethal concentration 50): 93.1 µM
HOP-62; [4]
  Growth percent HOP-62: 57.49%
RPMI-8226; Homo sapiens, RPMI-8226, five dose
  GI50: > 100 µM
RPMI-8226; Homo sapiens, RPMI-8226, five dose, read-out: LC50 (the source's name)
  CC50: > 100 µM
RPMI-8226; [6]
  Growth percent RPMI-8226: 79.66%
RPMI-8226; RPMI-8226, five dose
  TGI: >100 µM
BT-549; BT-549, five dose
  TGI: >100 µM
BT-549; [7]
  Growth percent BT-549: 100.10%
BT-549; Homo sapiens, BT-549, five dose
  GI50: 9.87 µM
BT-549; Homo sapiens, BT-549, five dose, read-out: LC50 (the source's name)
  CC50: > 100 µM
A498; A498, five dose
  TGI: 91.3 µM
A498; Homo sapiens, A498, five dose
  GI50: 15.3 µM
A498; Homo sapiens, A498, five dose, read-out: LC50 (the source's name)
  CC50: > 100 µM
A498; [5]
  Growth percent A498: 61.02%
HCT-15; [1]
  Growth percent HCT-15: 79.72%
HCT-15; HCT-15, five dose
  TGI: >100 µM
HCT-15; [9]
  GI50: > 100 µM
  LC50: > 100 µM
PC-3; Homo sapiens, PC-3, five dose
  GI50: > 100 µM
PC-3; Homo sapiens, PC-3, five dose, read-out: LC50 (the source's name)
  CC50: > 100 µM
PC-3; PC-3, five dose
  TGI: >100 µM
PC-3; Prostate cancer, 10^−5 molar, 48 hours, SRB
  Growth percent PC-3: 77.80%
SK-MEL-5; Homo sapiens, SK-MEL-5, five dose
  LC50: > 100 µM
SK-MEL-5; Melanoma, 10^−5 molar, 48 hours, SRB
  Growth percent SK-MEL-5: 73.99%
SK-MEL-5; SK-MEL-5, five dose
  TGI: >100 µM
CCRF-CEM; CCRF-CEM, five dose
  TGI: >100 µM
CCRF-CEM; Homo sapiens, CCRF-CEM, five dose
  GI50: > 100 µM
CCRF-CEM; Homo sapiens, CCRF-CEM, five dose, read-out: LC50 (the source's name)
  CC50: > 100 µM
CCRF-CEM; [6]
  Growth percent CCRF-CEM: 88.62%
HS 578T; [7]
  Growth percent HS 578T: 36.37%
HS 578T; HS 578T, five dose
  TGI: 65.5 µM
HS 578T; Homo sapiens, HS 578T, five dose
  GI50: 9.64 µM
HS 578T; Homo sapiens, HS 578T, five dose, read-out: LC50 (the source's name)
  CC50: > 100 µM
HT29; [1]
  Growth percent HT29: 68.21%
HT29; HT29, five dose
  TGI: >100 µM
HT29; [10]
  GI50: > 100 µM
  LC50 (concentration killing 50% of cells): > 100 µM
SR; Homo sapiens, SR, five dose
  GI50: > 100 µM
  LC50 (50% lethal concentration): > 100 µM
SR; [6]
  Growth percent SR: 84.32%
SR; SR, five dose
  TGI: >100 µM
HCT-116; [1]
  Growth percent HCT-116: 48.13%
HCT-116; HCT-116, five dose
  TGI: >100 µM
HCT-116; [11]
  GI50: 6.31 µM
  LC50 (concentration killing 50% of cells): > 100 µM
